Data taken from US8895019B2, “Biofilm treatment” (Oral Health Australia Pty Ltd, priority 2007, dated 2014).
Converted amounts (≈) assume the structure as drawn. Where two headings read alike, the source gives them in different places. Marks after values point to notes of the source that are not given here.

Experiments:
P. gingivalis W50 = experiment: Susceptibility of P. gingivalis to Frd inhibiting agents: growth in liquid culture, OD 620 nm over 50 h; type: cell-based, Porphyromonas gingivalis
Procedure: (§1) The effect of Frd inhibiting agents on P. gingivalis was carried out in liquid cultures. Briefly W50 was cultured in 200 mL BHI medium until OD of 0.6 (˜2.9×10^8 cfu/mL). The cells were then resuspended in fresh growth medium to a final concentration of 2.5×10^7 cfu/mL. Oxantel pamonate, morantel citrate and thiabendazole (Sigma) were dissolved in DMSO to achieve stock concentrations of 250 mM. 4 μL of the test solution was then mixed with 196 μL of cell suspension and transferred into 96 well flat bottom plates followed by incubation at 37° C. under anaerobic conditions and monitored hourly over a 50 h period by measuring the optical density of the culture at 620 nm using an iEMS microplate reader (Labsystems OY Research Technologies Division). Mean generation times of P. gingivalis in the presence of different inhibiting agents were calculated by […] where Nt and N0 are cells population at time t and time zero, respectively.

[1] = Solubility limit seen in the growth assay; type: physicochemical; settings: growth assay medium (P. gingivalis W50 liquid culture), 37 °C, kinetic from dmso stock, read-out: insolubility (concentration above which insoluble)
Procedure: as §1

P. gingivalis ATCC 33277 = experiment: Effect of Oxantel on growth of P. gingivalis ATCC 33277 in liquid culture over 50 h; type: cell-based; settings: Porphyromonas gingivalis, ATCC33277; P. gingivalis ATCC 33277, growth over 50 h
[2] = test system: P. gingivalis ATCC 33277 biofilm; experiment: Biofilm formation in static 96 well model, crystal violet stain; type: cell-based, Porphyromonas gingivalis
Procedure: P. gingivalis biofilm formation over 48 h in a static 96 well model was determined as described previously. Briefly P. gingivalis ATCC 33277 cells were resuspended to a final cell density of 2.5×10^7 before mixing with the test substances followed by transferring into 96 well flat bottom plates and incubated anaerobically at 37° C. Assessment of the biofilm mass was carried out at 24 h and 48 h by washing the cells twice with 250 μL of ultra pure water to remove loosely adhered cells followed by drying at 37° C. for 3 h. The dried biofilm was then stained in a solution of 0.1% crystal violet for 15 min and washed 2 times with 250 μL ultra pure water. The crystal violet stain was then dissolved from the biofilm using a solution of 80% ethanol and 20% acetone for 2 min through repeated pipetting before transferring to a new 96 well plate for measurement of the optical density at 620 nm.

[3] = test system: P. gingivalis ATCC 33277 biofilm; experiment: Flowcell biofilm culture and CLSM analysis (COMSTAT); type: cell-based, Porphyromonas gingivalis
Text: The biofilm culture of P. gingivalis ATCC 33277 in flow cells was similar to that previously described with several modifications. A 3-channel flow cell system (Stovall Life Science, USA) was set up in an anaerobic chamber (MK3 Anaerobic workstation; Don Whitley Scientific Ltd.) and was modified with silicon pump tubing (Gilson, France) and stopcocks for inoculation, testing and staining of the bacterial biofilms. All parts were assembled and 0.5% sodium hypochlorite was pumped into the system and left overnight to sterilise the system. Sterile water (200 mL) was then used to flush the system before growth medium addition. The system was inoculated with 1 mL of an exponentially growing P. gingivalis diluted to 0.1 OD600. The system was incubated for 1 h prior to constant flow (0.2 mL/min) of 5× diluted BHI (Oxoid) supplemented with 0.1 g/L cysteine, 1 mg/L heamin and 1 mg/L vitamin K. […] The flow of medium was resumed for another 10 min to wash off any unbound cells due to testing. BacLight stain (Molecular Probes) was then used to stain the biofilm in situ (see below).
Confocal laser scanning microscopy (CLSM) of the bacterial biofilms was carried out on a Meta 510 Confocal Microscope with an inverted stage (Zeiss). Horizontal (xy) optodigital sections, each 2 μm thick over the entire thickness of the biofilm (z) were imaged using a 63× objective at 512×512 pixel (0.28 μm per pixel), with each frame at 143.86 μm (x)×143.86 μm (y). To determine reproducibility across the biofilm 5 images at random positions from each of two biological replicates were obtained at wavelengths of 488 nm and 568 nm for each channel. All images obtained were analysed using COMSTAT software. Microcolonies were defined as cluster of cells with >500 pixel counts.

[4] = test system: P. gingivalis (ATCC 33277) biofilm; experiment: Viability of cells dispersed by Oxantel treatment, static 24 well biofilm assay, colony forming units; type: cell-based, Porphyromonas gingivalis; settings: especially for the 12.5 μM Oxantel treated biofilm, 30 min
Procedure: To test the viability of cells dispersed by Oxantel treatment, a static biofilm assay was performed as described above but with slight modifications. Briefly P. gingivalis (ATCC 33277) was allowed to form biofilm in 24 well microplates after 18 h incubation. The free floating planktonic cells were first removed and the biofilm washed once with PBS. 1 mL of 125 uM or 12.5 uM of Oxantel or sterile water […] was added to each well and incubated for 30 min. The number of dispersed P. gingivalis cells that are still viable was determined by cultural analysis on horse blood agar plates after serial dilution in BHI.

[5] = Porphyromonas gingivalis, P. gingivalis W50, growth over 50 h, read-out: MIC
[6] = 12.5 μM Oxantel vs Control, Biological Replicate 1
[7] = 12.5 μM Oxantel, Biological Replicate 1
[8] = 12.5 μM Oxantel, Biological Replicate 2, first channel
[9] = 12.6 μM Oxantel (so in the source), Biological Replicate 2, second channel
[10] = 125 μM Oxantel vs Control, Biological Replicate 1
[11] = 125 μM Oxantel, Biological Replicate 1
[12] = Biological Replicate 2, based on average of both replicates over the control sample
[13] = mature biofilm treated with Oxantel (125 μM or 12.5 μM, 30 min) vs control, P<0.01

Compound: c1ccc2[nH]c(-c3cscn3)nc2c1 [Thiabendazole]
- concentration required for slight inhibitory effects on the growth (P. gingivalis W50; P. gingivalis W50, growth over 50 h): more than 1 mM
- MIC (P. gingivalis W50; [5]): > 3000 µM
- solubility [1]: > 3000 µM

Compound: CN1CCCN=C1/C=C/c1cccc(O)c1 [Oxantel]
- concentration with positive inhibition of growth (P. gingivalis W50; P. gingivalis W50, from the growth curves): more than 15 μM
- MIC (P. gingivalis W50; [5]): 112 µM (≈ 24.2 µg/mL)
- MIC (P. gingivalis ATCC 33277): 125 µM (≈ 27 µg/mL)
- concentration that significantly reduced the biofilm mass at 24 h ([2]; ATCC 33277, 24 h biofilm, subMIC): ≥ 0.1 µM
- concentration necessary for an inhibitory effect on the biofilm mass at 48 h ([2]; ATCC 33277, 48 h biofilm): ≥ 3.9 µM
- Total biomass ([3]; 12.5 μM Oxantel added to 16 h biofilm, Biological Replicate 1, COMSTAT, 3-channel flow cell): 1.26^a μm^3/μm^2
- Average microcolony area % reduction [3, 6]: 37.2%
- Average thickness % reduction [3, 6]: 39.7%
- Total biomass % reduction [3, 6]: 30.1%
- Ave microcolonies (by pixel, minimum 500) [3, 7]: 17.4
- Average microcolony area [3, 7]: 147.65^a μm^2
- Average thickness [3, 7]: 0.70^a μm
- Surface to biovolume ratio [3, 7]: 2.04^a μm^2/μm^3
- Ave microcolonies (by pixel, minimum 500) [3, 8]: 18.4
- Average microcolony area [3, 8]: 119.571^a μm^2
- Average thickness [3, 8]: 0.911^a μm
- Surface to biovolume ratio [3, 8]: 2.331^a μm^2/μm^3
- Total biomass [3, 8]: 1.451^a μm^3/μm^2
- Ave microcolonies (by pixel, minimum 500) [3, 9]: 19.2
- Average microcolony area [3, 9]: 104.881^a μm^2
- Average thickness [3, 9]: 0.891^a μm
- Surface to biovolume ratio [3, 9]: 2.541^a μm^2/μm^3
- Total biomass [3, 9]: 1.621^a μm^3/μm^2
- Total biomass ([3]; 125 μM Oxantel added to 16 h biofilm, Biological Replicate 1): 1.00^a μm^3/μm^2
- Average microcolony area % reduction [3, 10]: 50.94%
- Average thickness % reduction [3, 10]: 63.2%
- Total biomass % reduction [3, 10]: 44.4%
- Ave microcolonies (by pixel, minimum 500) [3, 11]: 20.8
- Average microcolony area [3, 11]: 115.42^a μm^2
- Average thickness [3, 11]: 0.43^a μm
- Surface to biovolume ratio [3, 11]: 2.27^b μm^2/μm^3
- Average microcolony area % reduction [3, 12]: 37.9%
- Average thickness % reduction [3, 12]: 49.9%
- Total biomass % reduction [3, 12]: 42.8%
- number of microcolonies ([3]; Oxantel treated vs control samples): no significant difference
- biofilm depth [3, 13]: significant reduction
- size of microcolonies [3, 13]: significant reduction
- viability of cells released from the biofilm [4]: remained viable

Compound: Cc1ccsc1/C=C/C1=NCCCN1C [Morantel]
- MIC (P. gingivalis W50; P. gingivalis W50, growth over 50 h, read-out: MIC): 2800 µM (≈ 617 µg/mL)
- MIC (P. gingivalis W50; Porphyromonas gingivalis, W50, 50 h, P. gingivalis W50, growth over 50 h): ~3000 µM (≈ 661 µg/mL)
